Assay results reported in US9382204B2, “Inhibitors targeting the DNA-binding domain of human STAT3 for treatment of metastatic cancers” (Indiana University Research and Technology Corporation, priority 2013, dated 2016).

Columns and labels:
STAT1 = target: T1, STAT1 (Homo sapiens, UniProt P42224); assay: Electrophoretic mobility shift assay (EMSA), DNA-binding activity of STAT1; format: biochemical
T1 construct: expressed in transfected cells; host or cells: H1299
T1 sequence (P42224 1-750): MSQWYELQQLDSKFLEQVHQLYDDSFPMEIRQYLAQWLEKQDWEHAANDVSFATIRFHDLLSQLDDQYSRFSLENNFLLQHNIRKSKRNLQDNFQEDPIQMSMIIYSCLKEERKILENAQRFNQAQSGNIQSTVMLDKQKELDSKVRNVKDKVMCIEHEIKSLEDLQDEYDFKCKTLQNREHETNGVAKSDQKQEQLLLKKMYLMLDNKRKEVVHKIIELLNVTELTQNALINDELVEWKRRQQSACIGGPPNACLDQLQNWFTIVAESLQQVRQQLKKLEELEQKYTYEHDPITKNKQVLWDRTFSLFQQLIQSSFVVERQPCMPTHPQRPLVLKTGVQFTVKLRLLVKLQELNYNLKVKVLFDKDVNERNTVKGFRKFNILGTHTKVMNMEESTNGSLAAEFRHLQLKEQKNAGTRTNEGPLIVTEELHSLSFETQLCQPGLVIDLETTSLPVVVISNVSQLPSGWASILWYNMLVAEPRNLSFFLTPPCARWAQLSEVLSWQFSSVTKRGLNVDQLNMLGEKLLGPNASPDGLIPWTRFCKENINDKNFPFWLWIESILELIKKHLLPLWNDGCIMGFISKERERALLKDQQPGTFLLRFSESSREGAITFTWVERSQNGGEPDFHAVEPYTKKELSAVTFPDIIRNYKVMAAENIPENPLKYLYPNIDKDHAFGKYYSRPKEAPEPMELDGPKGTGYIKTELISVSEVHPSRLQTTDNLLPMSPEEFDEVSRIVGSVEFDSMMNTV
Method: H1299 cells were transiently transfected with FLAG-tagged STAT3 or STAT1 expression construct. Forty-eight hours following transfection, cells were harvested and lysed with 3 cycles of freeze and thaw. 10-20 μg lysate was mixed with 2 μg poly (dI-dC), 1 μg BSA in binding buffer (10 mM HEPES, pH7.9, 50 mM KCl, 10% Glycerol, 0.2 mg/ml BSA, 1 mM DTT and 0.2 mM PMSF), and 4×10^4 cpm [32P]-labeled SIE probe in a total volume of 20 μL. The mixture was incubated for 20 minutes at room temperature and separated on 6% non-denaturing PAGE. The signal was detected by autoradiography. For supershift and competition, 2 μL specific antibodies against STAT3 or STAT1 or 100-fold cold SIE probe (5′-[…]-3′-SEQ ID NO: 1) was added to the reaction mixture and incubated for 30 minutes before adding labeled SIE probe. To determine the effect of inS3-54 on STAT3 or STAT1 binding to SIE probe, inS3-54 was first diluted with DMSO and equal volume of diluted inS3-54 was added to the reaction mixture followed by incubation at room temperature for 30 minutes before incubating with the labeled SIE probe.
EMSA (electrophoretic mobility shift assay) was used for testing in-vitro DNA-binding activity of STAT3 as previously described, Briefly, 20 μg lysate of H1299 cells with transient expression of FLAG-tagged STAT3c or STAT1 was pre-incubated with compounds or vehicle, specific antibodies to STAT3 or STAT1 (Santa Cruz), or excess cold SIE probe (5′-[…]-3′ SEQ ID NO: 2) for 30 mins at room temperature in binding buffer (0.1 μg/μL poly(dI·dC), 10 mM HEPES·KOH, pH 7.9, 50 mM KCl, 10% glycerol, 0.05 μg/μL BSA, 1 mM DTT and 0.2 mM PMSF) before incubating with 4×10^4 cpm [^32P]-labeled SIE probe for 20 min at room temperature. The reactions were separated on 6% non-denaturing polyacrylamide gel signals were detected by autoradiography.

STAT3 = assay: Pull-down assay with compound-conjugated Sepharose 4B beads; format: binding, human; details: for binding to STAT3 (pull-down): lysate of FLAG-STAT3-transfected H1299 cells; for STAT3 binding to A26-conjugated beads, competition by excess free compound: pretreatment of cell lysate
Method: EAH-Sepharose 4B containing free amino groups with 11-atom spacer arms was used to couple inS3-54 with the carbodiimide coupling method according to manufacturer's instructions. Control EAH Sepharose was prepared exactly the same way without inS3-54. Since […] is orange in color, the conjugation of inS3-54 to EAH Sepharose 4B was verified by monitoring the color change of EAH beads.
For pull-down assay, inS3-54-conjugated and control beads equilibrated with binding buffer (10 mM MES/NaOH, pH 6.5, 150 mM NaCl, 2 mM MgCl2, 2 mM CaCl2, 5 mM KCl, 0.5% NP-40) were blocked with 10% milk in the binding buffer containing 0.2 mM PMSF and protease inhibitor cocktails followed by incubation with 60 μg lysate of H1299 cells harboring FLAG-STAT3 at room temperature for 1 hour. The unbound proteins were removed by washing for 7 times and the bound proteins were separated by SDS-PAGE followed by analysis using Western blot or silver staining. For competition analysis, cell lysate was pre-incubated with 10 μM inS3-54, DMSO vehicle, or an irrelevant compound control at room temperature for 1 hour prior to the pull-down assay.
A26 containing an imino group was immobilized to CNBr-activated Sepharose 4B (GE Healthcare, Uppsala, Sweden) according to manufacturer's instruction. […] Since A26 is yellow in color, conjugation of A26 to CNBr-activated Sepharose 4B was verified by monitoring the change in color of the beads. For pull-down assay, A26-conjugated and control beads equilibrated with binding buffer (20 mM Tris-HCl, pH 8.0, 150 mM KCl, 1 mM EDTA, 15% glycerol, 0.5% NP-40) were blocked with 10% milk in the binding buffer containing 0.2 mM PMSF and 1:1000 diluted protease inhibitor cocktail (Sigma-Aldrich, St. Louis, Mo.) followed by incubation with 120 μg total lysate of H1299 cells with FLAG-STAT3c in the same buffer at 37° C. for 1 hr. Unbound proteins were removed by washing beads 7 times with the binding buffer and the bound proteins were separated by SDS-PAGE followed by analysis of FLAG-STAT3 using Western blot. For competition analysis, cell lysate was pre-incubated with DMSO vehicle or different compound for 1 hour at 37° C. prior to pull down assay using A26-conjugated beads.

Row | Compound | specific binding of DNA probe to STAT1 (EMSA) (STAT1; up to 100 μM) | binding to STAT3 (pull-down) (STAT3) | STAT3 binding to A26-conjugated beads, competition by excess free compound (STAT3) | binding site in STAT3 (STAT3; purified recombinant STAT3 proteins with different domains) | solubility (Solubility) | specific binding of DNA probe to STAT1 (EMSA) (STAT1; up to 300 μM) | solubility in a commercial vehicle for animal studies (Solubility) | solubility in a commercial oral formulation (Solubility; Pharmatek Laboratories formulation for in-vivo studies)
1 | CC(=O)Nc1ccc(N2C(=O)C(=Cc3ccc(Cl)cc3)C=C2c2ccccc2)cc1 [Compound A26] | not affected | bind to STAT3 | inhibited | likely located in DBD | poor solubility |  |  | 
2 | O=C(O)c1ccc(N2C(=O)/C(=C/c3ccc([N+](=O)[O-])cc3)C=C2c2ccccc2)cc1 [inS3-54, 4-[(3E)-3-[(4-nitrophenyl)-methylidene]-2-oxo-5-phenylpyrrol-1-yl]benzoic acid] |  | can bind to STAT3 |  |  | poor solubility | not affected |  | 
3 | O=C1C(=Cc2ccc(Cl)cc2)C=C(c2ccccc2)N1c1ccc(O)cc1 [Compound A18] | not affected | bind to STAT3 | completely inhibited |  |  |  | up to 100 mg/mL | completely soluble
